Reference: patent US9127045B2, “Method of inhibiting bacterial growth and biofilm formation with natural quorum sensing peptides” (UNIVERSITY OF SOUTHERN CALIFORNIA, priority 2005, dated 2015)
Ends that are not written are not given here.

Experiments:
[1] = tested on: GTFB expression in the wild-type S. mutans; assay: Western blot of GTFB expression after addition of CSP to cultures; assay type: cell-based; settings: CSP added to fresh cultures at time of dilution, 1 to 8 mcg/mL; FIG. 7 panel 1
Protocol: (§1) For the Western blotting, the bacteria were incubated to the desired optical density, subjected to the freeze-thaw cycle and mixed with the sample loading buffer. The samples were heated at 100° C. for 15 minutes and subjected to the PAGE. The number of cells per lane of the gel was kept constant at 10^8 cells. The western blotting was performed in accordance with a standard procedure (Sambrook, J. and Russel D. W. Molecular Cloning, a laboratory manual, 3rd ed. Cold Spring Harbor Laboratory Press, NY, 2001). Briefly, after PAGE the samples were transferred onto the nitrocellulose membrane and the latter subjected to the standard ELISA procedure. The anti-GTFB mouse monoclonal antibody was previously characterized (Fukushima, K., Okada, T., Ochiai, K., Infection and Immunity 61:323-328 (1993), incorporated herein by reference). The secondary antibody (HRP-linked goat anti-mouse) and the detection reagents were purchased from Cell Signaling Technology (Beverly, Mass.).
(§2) Synthetic CSP was dissolved in water to the concentration of 1 mg/mL as described in Li, Y-H et al., J. of Bact., 183:897-908 (2001). […]
(§3) A Western blot analysis was performed to determine the effect of CSP on the level of GTFB expression. […] As a control, the same blot was analyzed with antibody specific to FTF, where it was observed that CSP has no effect on FTF expression (FIG. 7, panel 2).

[2] = tested on: S. mutans wild-type strains UA140 and UA159; assay: Growth inhibition of S. mutans culture by CSP pulse (96-well plate, cell density); assay type: cell-based
Protocol: Previously, it was assumed that quorum sensing may be an on/off type of switching event wherein when the quorum sensing molecule reaches a certain threshold, a new behavior is […] and vice versa. The inventors have unexpectedly discovered that the QS regulated gene expression is not an all-or-nothing type of system, but actually has a dose-dependent response. […] At a 100-fold higher concentration (400 μM), CSP inhibits the growth of a S. mutans culture by 50%.
The experiment was performed in a 96-well plate with triplicate wells for each treatment. Cell density was measured by using a plate reader (BioRad). The experiment was repeated three times. Numbers represent the average of the triplicate samples from one representative experiment. Variations between experiments were within 20%.
These experiments were designed to mimic the conditions of the dental hygiene regimen. Specifically, the bacteria were “pulsed” with CSP. The peptide was added for a mere 10 minutes, washed away and the incubation continued in the fresh medium. In this set-up the inhibitory effect persisted for a long time and became undetectable only after 16 hours of the culture growth. Competition experiments have also shown that a mere 3-hour advantage is sufficient to ensure that a resident species in a biofilm will out compete the newcomer.

S. mutans = assay: In vitro attachment assay to a smooth surface (Petri dish) with sucrose; assay type: cell-based; settings: CSP at 8 µg/mL for 10 minutes prior to one hour incubation on Petri dishes with sucrose; without CSP up to 51%; FIG. 9
Protocol: The bacteria were grown in liquid cultures to the desired optical density. 20 ml of the cultures were then transferred into Petri dishes and sucrose added to the final concentration of 2%. The incubation was resumed for one hour, after which the liquid fraction was withdrawn and the fresh medium was added into which the layer of attached cells was scraped. The percentage of the attached bacteria was determined as the ratio of the optical densities of the attached to the total (a sum of attached and unattached) bacteria.
Synthetic CSP was dissolved in water to the concentration of 1 mg/mL as described in Li, Y-H et al., J. of Bact., 183:897-908 (2001). The cultures were grown in Todd Hewitt Broth (THB) supplemented with 5% horse serum. CSP was added to the cultures at the time of diluting the overnight culture (time zero of the culture growth) to a designated concentration between 1 and 8 mcg/mL. The incubation then continued up to the optical density where the expression of GTF is maximal (OD 650=0.1). The cultures where then collected and used in Western blotting with anti-glucosyltransferase (gtf) antibody. […]
An in vitro assay was performed to determine whether CSP can inhibit the attachment of S. mutans to a smooth surface. When sucrose was added to the medium, the wild-type S. mutans readily attached to the surface of a Petri dish. […]

gtfB gene of S. mutans = assay: Transcriptional fusion assay (gtfB promoter-luciferase); assay type: cell-based
From the text: The fusion constructs and the transcription assay were previously described (Goodman, S. D. and Gao, Q., Plasmid 43:85-98 (2000)). Briefly, the constructs comprised the upstream regions of the gtfB and gtfC genes fused to the promoterless coding sequence of the firefly luciferase gene and inserted into the plasmid vector pVA838, a shuttle plasmid capable of propagating in both E. coli and S. mutans marked with erythromycin resistance. The plasmids were introduced into S. mutans GS5 by electroporation and the resulting erythromycin resistant strains were grown in liquid cultures and collected at various optical densities. The reporter gene (luciferase) expression was detected by measuring luminescence upon the addition of luciferin (the substrate for luciferase), see Goodman, S. D. and Gao Q. Plasmid 42:154-157 (1999), incorporated herein by reference.
as §2
The transcriptional fusion assay was performed to determine whether CSP inhibits the expression of the gtfB gene of S. mutans. […] When the expression peaked at the end of the lag phase prior to the exponential growth, the cells were challenged with increasing concentrations of CSP for an incubation period of 10 minutes and assessed for luminescence, the measure of reporter gene expression. […]

FTF expression = assay: Western blot of FTF expression (control) after addition of CSP; assay type: cell-based, S. mutans; settings: same blot, antibody specific to FTF; FIG. 7 panel 2
Protocol: as §1, §2, §3

SGSLSTFFRLFNRSFTQALGK [CSP]
peak expression of GTFB (Western blot) [1]: lowered proportionally to the amount of peptide added
inhibition of growth of S. mutans culture ([2]; CSP 400 μM, 10 minute pulse, FIG. 12): 50%
effect on cell division and viability ([2]; CSP 1.6 mM, 10 minute pulse, FIG. 12): cell division stops and cells begin to die
time of culture growth after which the inhibitory effect became undetectable ([2]; CSP added for 10 minutes, washed away, incubation in fresh medium): 16 h
bacterial cells localized to the attached layer (S. mutans): less than 8%
inhibition of the gtf genes (gtfB gene of S. mutans; CSP 8 μg/ml (4 μM)): desired inhibition of the gtf genes
gtfB reporter gene expression (luminescence) (gtfB gene of S. mutans; increasing concentrations of CSP, 10 minutes incubation at peak expression, FIG. 8): increasing concentrations of CSP increased the magnitude of repression
FTF expression (Western blot) (FTF expression): no effect
